Here are results for 2 compounds from US20120208776A1 (priority 2002, published 2012).

Where “and” joins values, the source holds several entries; their conditions need not be identical. Identical values can stand only once. Like-named read-outs stand apart in the source and are kept apart here.

Data set [1] has as its system rat liver mRNAs. The class given is in vivo, Sprague-Dawley rats. Particulars: 35.7 mg/kg.
Source text: Total RNA was isolated using Trizol (Invitrogen, CA), and purified with the RNeasy Kit (Qiagen, CA). mRNA sequences were obtained from the public GeneBank database (www.ncbi.nlm.nih.gov), and primers were designed using Primer3 software from The Massachusetts Institute of Technology (frodo.wi.mit.edu/cgi-bin/primer3/primer3_www.cgi).
Data set [2] deals with cyclin D1 and p21 mRNA in MDA-MB-453 cells. Nature of the data set: RT-PCR of mRNA. It is filed as cell-based, human.
Data set [3] has as its system T1, Na^+-K^+-ATPase.
T1 construct: Combination index; actein (μM); Combination index; actein; ATPase activity; other: actein 0.8 μM alone; other: digitox
Kind of data set: Combination of agents on Na^+-K^+-ATPase activity, combination index. The class given is biochemical.
Procedure: Enzymatic assay of adenosine 5′-triphosphatase. The enzymatic assay of ATPase (adenosine 5′-triphosphatase, EC 3.6.1.3) followed the Sigma Prod. […] [P] was determined by the Taussky-Shorr method.

The nature of data set [4]: Animal wellness, histopathological examination, tolerated dose. It is filed as in vivo, Sprague-Dawley rats. Particulars: actein 35.7 mg/kg; 24 hours. The protocol: A sample of each mammary tumor was collected, frozen in liquid nitrogen and kept at −70° C.
Analysis by microscopy: Histopathological examination of H&E and H&E/Oil Red O stained sections of control and treated tissues obtained 6 or 24 hours after treatment were performed. Tissues were embedded in OCT (optimal cutting temperature compound to enable cryosectioning of the sample).
Livers were embedded in OCT (optimal cutting temperature compound to enable cryosectioning of the sample) and stained with haematoxylin and eosin (H and E). All samples were visualized with a Zeiss Axioplan 2 microscope (Carl Zeiss Inc., Thornwood, N.Y.) and images were obtained with a Nikon Coolpix 5000 (Nikon Instruments, Melville, N.Y.) camera.

Data set [5] deals with MDA-MB-453 cells. Kind of data set: Combination with chemotherapy agents, cell count, combination index (CI). It is filed as cell-based, human.
Data set [6] deals with cyclin D1 and p21 mRNA in MDA-MB-453 cells. Kind of data set: RT-PCR of mRNA. The class given is cell-based, human. The protocol:
MDA-MB-453 cells were treated with DMSO or actein for 3, 10, or 24 h. RNA was isolated and analyzed by RT-PCR, using primers for cyclin D1 and actin (control). The staining intensities of the visualized blots were quantified using NIH image software. The relative band intensities were determined by comparing treated samples with untreated controls. These values were then normalized (fold), using actin as an internal control.
MDA-MB-453 cells were treated with DMSO or actein for 3, 10, or 24 h. RNA was isolated and analyzed by RT-PCR, using primers for cyclin D1 and actin (control). The staining intensities of the visualized blots were quantified using NIH image software. The relative band intensities were determined by comparing treated samples with untreated controls. These values were then normalized (fold), using β-actin as an internal control.
The source holds these as a separate data set.

The test system of data set [7] is ERK2 in MDA-MB-453 cells. Kind of data set: RNAi-mediated gene knockdown of ERK2 (MAPK1), growth inhibition. The conditions noted are these: for inhibition at 20 µg/mL: Homo sapiens, MDA-MB-453, 48 h, actein 20 μg/ml, 48 h, read-out: percent growth inhibition; for cell proliferation: digitoxin 0.4 μg/ml, 24 hours. It is filed as cell-based, human. The protocol: RNAi-mediated gene knockdown. To test the functional relevance of ERK2 (p42/44MAPK pathway), the growth inhibitory effects of actein on MDA-MB-453 cells using the model system RNAi-mediated gene knockdown was examined. Cells were pretreated with siRNA to ERK2 (Hs/Mm MAPK1 siRNA) (Qiagen, Valencia, Calif.) for 24 h, then treated with actein at 20 μg/ml for 48 h, and the percent surviving cells was assayed. Western blot analysis was performed to confirm the ERK2 knockdown.

Data set [8] in a line: Pharmacokinetic analysis of actein in serum and urine (HPLC-MS). It is filed as in vivo. Particulars: female, Sprague-Dawley, rat, oral, rats, 35.7 mg/kg. The protocol:
In this study two groups of 8 female rats were each treated with: 1) 35.7 mg/kg of actein, and 2) 1/5 this dose, 7.14 mg/kg, by gastric intubation. A control group of 8 female rats was treated by gastric intubation with 1 cc of water. Afresh solution of actein, suspended in water, was prepared just before the treatment.
Blood and urine collection: To determine the serum concentration of actein at different times during 24 hours, blood was sequentially collected from 4 animals of the group treated with 35.7 mg/kg actein at intervals of 0, 5, 15, 30, 60 minutes and 2, 4, 6, 8 and 24 hours after the administration of actein. For the 24 hour period, animals were starved with free access to water. Blood samples (0.5 ml) were collected through contusion of the retrobulbar plexus with a siliconated glass Pasteur pipette after anaesthetization with ethyl ether. Immediately after sacrifice, blood was drawn from the portal vein with a sterile syringe into vials without anticlotting agents. Ten minutes after each sampling (the time necessary for the formation of the clot), blood was centrifuged at 1500 g for 10 minutes, then serum was stored in cryogenic screw cap vials at −70° C. […]
HPLC-MS analysis was performed, in duplicate, by Chromadex to determine the presence and quantity of actein in serum and urine samples from Sprague-Dawley rats treated with 35.7 mg/kg actein. […]

The conditions of data set [9]: heart failure; cited from earlier work.

Take `CC(=O)O[C@@H]1C[C@@]23C[C@@]24CC[C@H](O[C@@H]2OC[C@@H](O)[C@H](O)[C@H]2O)C(C)(C)[C@@H]4CC[C@H]3[C@]2(C)C[C@@H]3O[C@]4(C[C@@H](C)[C@@H]3[C@@]12C)O[C@H](O)[C@@]1(C)O[C@@H]41` [actein]: the “Fold-change relative to control, BZRP, RT-PCR” value in data set [1] (6 h) came out at 0.07; in data set [1] (24 h), 1.13. In addition, the “Fold-change relative to control, CCND1, RT-PCR” value was 0.52 in [1] (6 h) and −2.32 in data set [1] (24 h). In addition, the “Fold-change relative to control, HMGCR, RT-PCR” value in data set [1] (6 h) is listed as −0.45; in data set [1] (24 h), 0.45. For the same compound, the results for the “Fold-change relative to control, HMGCS1, RT-PCR” value in [1] (6 h) and in [1] (24 h) were −0.82 and 1.44, respectively. For the same compound, the “Fold-change relative to control, HSD17B7, RT-PCR” value in data set [1] (6 h) is listed as −0.66; in data set [1] (24 h) it was 1.21. Besides, the “Fold-change relative to control, ID3, RT-PCR” value is reported as 0.30 in data set [1] (6 h) and −1.52 in data set [1] (24 h). For the same compound, the “Fold-change relative to control, NQO1, RT-PCR” value in data set [1] (6 h) is recorded as −0.50; in [1] (24 h), 1.73. For the same compound, the “Fold-change relative to control, S100A9, RT-PCR” value in data set [1] (6 h) is −0.36; in [1] (24 h), 2.92. The “p21 mRNA (RT-PCR)” value in [2] (3 h, 20 μg/ml) is given as 0.92 fold; in [2] (3 h, 40 μg/ml), 1.03 fold; in data set [2] (10 h, 20 μg/ml), 1.06 fold; in [2] (10 h, 40 μg/ml) it was 1.19 fold; in data set [2] (24 h, 20 μg/ml), 0.92 fold; in data set [2] (24 h, 40 μg/ml) it was 1.46 fold. The ATPase activity in data set [3] (actein 0.8 μM alone) is recorded as 95.1%. The “liver histology (H&E)” value in [4] was “hepatotoxicity”. In addition, the “number of viable cells, average” value is reported as 148202.7 in data set [5] (actein 1); 106747.3 in [5] (actein 10); 174798.3 in data set [5] (actein .1 (μg/ml), 96 h). The “cyclin D1 mRNA (RT-PCR)” value in [6] (3 h, 20 μg/ml) stood at 0.88 fold; in [6] (3 h, 40 μg/ml), 1 fold; in data set [6] (10 h, 20 μg/ml), 1.18 fold; in data set [6] (10 h, 40 μg/ml), 1.02 fold; in data set [6] (24 h, 20 μg/ml) it was 0.98 fold; in [6] (24 h, 40 μg/ml) it was 0.56 fold. Also, the inhibition at 20 µg/mL in data set [7] (ERK2 siRNA) amounted to 79.6%; in data set [7] (control siRNA), 100%. Moreover, the concentration at 24 h in data set [8] (serum, 24 hours, read-out: level of actein in serum) came to 102 ng/mL; in data set [8] (urine, 24 h, read-out: level of actein in urine) it was 777 ng/mL.
For the compound `C[C@H]1O[C@@H](O[C@H]2[C@@H](O)C[C@H](O[C@H]3[C@@H](O)C[C@H](O[C@H]4CC[C@@]5(C)[C@H](CC[C@@H]6[C@@H]5CC[C@]5(C)[C@@H](C7=CC(=O)OC7)CC[C@]65O)C4)O[C@@H]3C)O[C@@H]2C)C[C@H](O)[C@@H]1O` [digitoxin], the ATPase activity in data set [3] (digitoxin 0.2 μM alone) is given as 87.8%; in [3] (digitoxin 0.8 μM alone), 53.6%. Further, in data set [9], the therapeutic plasma concentration entry was “greater than 10 ng/ml and > 13 nM”. The cell proliferation in data set [7] (control siRNA) was 96.0%; in [7] (siRNA to MAPK1), 76.9%.
